In ChEMBL document CHEMBL1201862, “PubChem BioAssay data set” (2004):
Active and inactive are the calls of the source.

How the values were obtained:
[1] = target: T1, Short transient receptor potential channel 4 (Mus musculus, UniProt Q9QUQ5); assay: calcium entry via TRPC4 opening agents – cell-based, HEK293 TRPC4/mu-opioid, Fluo-4 calcium, dose response (AID 434937); type: functional
T1 sequence (Q9QUQ5 whole entry): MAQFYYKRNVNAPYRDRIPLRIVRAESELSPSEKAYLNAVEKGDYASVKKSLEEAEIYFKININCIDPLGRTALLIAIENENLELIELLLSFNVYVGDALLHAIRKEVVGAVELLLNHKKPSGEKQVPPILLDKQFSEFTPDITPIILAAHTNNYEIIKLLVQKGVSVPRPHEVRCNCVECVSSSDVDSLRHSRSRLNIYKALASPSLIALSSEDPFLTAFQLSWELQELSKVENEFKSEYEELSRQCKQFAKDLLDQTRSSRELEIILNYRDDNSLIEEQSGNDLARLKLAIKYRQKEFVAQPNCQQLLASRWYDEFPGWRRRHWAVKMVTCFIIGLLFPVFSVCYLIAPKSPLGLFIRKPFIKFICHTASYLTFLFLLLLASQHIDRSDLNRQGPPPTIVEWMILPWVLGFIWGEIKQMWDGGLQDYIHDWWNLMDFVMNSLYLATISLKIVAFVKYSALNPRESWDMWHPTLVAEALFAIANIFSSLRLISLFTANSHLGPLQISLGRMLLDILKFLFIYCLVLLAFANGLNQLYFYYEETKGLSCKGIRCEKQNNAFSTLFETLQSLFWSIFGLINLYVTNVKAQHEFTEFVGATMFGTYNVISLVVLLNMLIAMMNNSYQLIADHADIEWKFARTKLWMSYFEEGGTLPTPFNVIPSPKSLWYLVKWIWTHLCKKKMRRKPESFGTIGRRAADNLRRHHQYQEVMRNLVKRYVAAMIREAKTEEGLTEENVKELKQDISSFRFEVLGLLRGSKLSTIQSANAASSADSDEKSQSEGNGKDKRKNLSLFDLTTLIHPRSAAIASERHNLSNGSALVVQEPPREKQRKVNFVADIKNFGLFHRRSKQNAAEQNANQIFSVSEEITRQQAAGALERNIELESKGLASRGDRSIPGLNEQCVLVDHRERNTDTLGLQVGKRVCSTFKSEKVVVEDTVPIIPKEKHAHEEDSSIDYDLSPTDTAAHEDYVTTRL

[2] = target: T2, Corticotropin-releasing factor receptor 2/Corticotropin-releasing factor-binding protein (Homo sapiens, UniProt P24387+Q13324); assay: activators of CRF receptor 2 with binding protein – uHTS hits, confirmation (AID 602473); type: functional; settings: read-out: EC50_Mean
T2 sequence (Q13324 whole entry): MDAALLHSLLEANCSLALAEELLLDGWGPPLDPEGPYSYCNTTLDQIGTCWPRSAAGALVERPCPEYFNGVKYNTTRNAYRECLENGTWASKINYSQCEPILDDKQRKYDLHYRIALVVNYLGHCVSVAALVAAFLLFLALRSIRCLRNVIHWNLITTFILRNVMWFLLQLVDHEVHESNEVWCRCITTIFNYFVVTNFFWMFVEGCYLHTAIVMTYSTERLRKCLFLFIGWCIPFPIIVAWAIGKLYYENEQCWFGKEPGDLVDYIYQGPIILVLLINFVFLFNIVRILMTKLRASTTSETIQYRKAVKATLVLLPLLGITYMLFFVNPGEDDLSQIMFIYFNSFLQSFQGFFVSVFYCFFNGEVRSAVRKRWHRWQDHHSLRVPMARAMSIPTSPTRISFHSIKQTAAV
T2 sequence (P24387 whole entry): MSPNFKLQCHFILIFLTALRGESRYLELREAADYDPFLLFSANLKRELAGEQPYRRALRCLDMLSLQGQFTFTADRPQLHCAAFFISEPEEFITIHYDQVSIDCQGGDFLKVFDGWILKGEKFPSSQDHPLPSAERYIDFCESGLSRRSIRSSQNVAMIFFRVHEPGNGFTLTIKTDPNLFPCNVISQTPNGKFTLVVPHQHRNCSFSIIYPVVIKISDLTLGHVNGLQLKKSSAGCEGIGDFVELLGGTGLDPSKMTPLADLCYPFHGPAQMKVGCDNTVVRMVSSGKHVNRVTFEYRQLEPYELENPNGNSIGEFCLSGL

HEK293 [3] = assay: cells; type: functional, cell-based; settings: Homo sapiens
HEK293 [4] = assay: cells; type: functional, cell-based; settings: Homo sapiens; remark: listed apart in the source
HEK293 [5] = assay: cells; type: functional, cell-based; settings: Homo sapiens; remark: listed apart in the source
[6] = fluconazole-exposed Candida albicans growth modulators – fluorescence, retest, confirmation (AID 2467); type: functional, cell-based
[7] = NIH-3T3 fibroblast cytotoxicity, dose response, cytotoxicity control, cell-based, fluorescence, Alamar Blue, secondary assay (AID 2327); type: functional;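 also: NIH-3T3 mouse fibroblasts cultured with fluconazole at 8 µg/mL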
[8] = target: Nucleotide-binding oligomerization domain-containing protein 2 (Homo sapiens, UniProt Q9HC29); assay: inhibition of NOD2-driven NF-kB reporter – cell-based, luminescence, uHTS, HEK293 (AID 1566); type: functional
cells = type: functional
HEK293 [9] = assay: inhibition of NOD1-driven NF-kB reporter – cell-based, luminescence, uHTS, primary screen (AID 1578); type: functional; settings: Homo sapiens
HEK293 [10] = assay: NOD2 signaling inhibitors in MDP-stimulated cells, cell-based, uHTS, luminescence (AID 2001); type: functional; settings: Homo sapiens
[11] = target: T1, Short transient receptor potential channel 4; assay: block of DAMGO-driven TRPC4 calcium entry – cell-based, HEK293 TRPC4/mu-opioid, Fluo-4 calcium, dose response (AID 434942); type: functional;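 also: potency of inhibitors blocking the TRPC4 calcium response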
[12] = target: DNA dC->dU-editing enzyme APOBEC-3A (Homo sapiens, UniProt P31941); assay: Dose Response confirmation of small molecule APOBEC3A DNA Deaminase Inhibitors via a fluorescence-based single-stranded DNA deaminase assay. [Related pubchem assays (depositor defined):AID493011, AID493024]; type: functional
[13] = target: DNA dC->dU-editing enzyme APOBEC-3G (Homo sapiens, UniProt Q9HC16); type: functional;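 also: Dose-response counterscreen measuring inhibition of APOBEC3G DNA deaminase activity, run while confirming APOBEC3A inhibitors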
[14] = Vero E6 cell cytotoxicity, dose response, cytotoxicity control for non-replicating M. tuberculosis project, secondary assay (AID 492998); type: functional, VeroE6; settings: Vero C1008
[15] = THP-1 cell cytotoxicity, dose response, cytotoxicity control for non-replicating M. tuberculosis project (AID 489025); type: functional
Aminopeptidase N = target: T3, Aminopeptidase N (Plasmodium falciparum FcB1/Columbia, UniProt O96935); assay: malaria alanyl aminopeptidase activity blockers – biochemical, fluorogenic H-Leu-NHMec substrate, 1536-well (AID 1445); parameters: species or system Plasmodium falciparum 3D7, 3D7
T3 sequence (O96935 whole entry): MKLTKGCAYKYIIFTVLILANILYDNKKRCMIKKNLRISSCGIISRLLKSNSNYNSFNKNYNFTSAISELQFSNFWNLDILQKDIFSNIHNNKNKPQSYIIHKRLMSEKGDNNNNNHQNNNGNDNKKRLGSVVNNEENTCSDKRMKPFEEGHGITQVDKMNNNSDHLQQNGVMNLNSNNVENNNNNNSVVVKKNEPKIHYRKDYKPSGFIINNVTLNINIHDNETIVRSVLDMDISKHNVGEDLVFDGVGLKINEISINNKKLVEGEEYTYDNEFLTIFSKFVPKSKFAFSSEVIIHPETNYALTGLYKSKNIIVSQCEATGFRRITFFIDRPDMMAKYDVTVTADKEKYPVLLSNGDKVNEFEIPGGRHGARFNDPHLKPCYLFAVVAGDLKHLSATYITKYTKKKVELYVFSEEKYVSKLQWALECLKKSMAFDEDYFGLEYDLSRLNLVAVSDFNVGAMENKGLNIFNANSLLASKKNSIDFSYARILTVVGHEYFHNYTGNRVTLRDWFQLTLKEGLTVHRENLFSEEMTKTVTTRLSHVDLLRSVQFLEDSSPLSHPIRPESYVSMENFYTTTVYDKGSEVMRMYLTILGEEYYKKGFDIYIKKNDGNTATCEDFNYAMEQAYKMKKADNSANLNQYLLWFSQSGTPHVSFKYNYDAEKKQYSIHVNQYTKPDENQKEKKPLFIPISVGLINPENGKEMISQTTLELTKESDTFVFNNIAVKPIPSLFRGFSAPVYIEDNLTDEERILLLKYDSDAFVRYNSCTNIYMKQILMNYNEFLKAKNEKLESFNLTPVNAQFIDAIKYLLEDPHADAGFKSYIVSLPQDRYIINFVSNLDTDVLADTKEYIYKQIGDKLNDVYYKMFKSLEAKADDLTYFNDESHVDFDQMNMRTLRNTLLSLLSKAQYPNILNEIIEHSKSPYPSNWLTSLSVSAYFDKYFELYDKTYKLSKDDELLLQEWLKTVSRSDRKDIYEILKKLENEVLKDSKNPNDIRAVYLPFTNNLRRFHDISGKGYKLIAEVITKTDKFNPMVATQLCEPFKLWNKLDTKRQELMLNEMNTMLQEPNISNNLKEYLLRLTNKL

INS1 = assay: INS-1E survival protection against cytokine death – cell-based, luminescence, retest, dose response (AID 449756); type: functional; settings: Rattus norvegicus;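 also: cell death triggered by IL-1 beta plus TNF-alpha plus IFN-gamma mixture; protective hits raise ATP signal compared with cytokine alone wells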

Chain of DNA dC->dU-editing enzyme APOBEC-3A (P31941 whole entry): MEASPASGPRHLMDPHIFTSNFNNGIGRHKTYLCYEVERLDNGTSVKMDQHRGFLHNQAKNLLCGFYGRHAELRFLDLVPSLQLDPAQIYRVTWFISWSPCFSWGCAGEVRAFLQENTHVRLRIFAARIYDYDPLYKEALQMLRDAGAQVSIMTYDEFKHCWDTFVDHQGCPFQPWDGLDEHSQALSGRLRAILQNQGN
Chain of Nucleotide-binding oligomerization domain-containing protein 2 (Q9HC29 whole entry, the tested form may be a part): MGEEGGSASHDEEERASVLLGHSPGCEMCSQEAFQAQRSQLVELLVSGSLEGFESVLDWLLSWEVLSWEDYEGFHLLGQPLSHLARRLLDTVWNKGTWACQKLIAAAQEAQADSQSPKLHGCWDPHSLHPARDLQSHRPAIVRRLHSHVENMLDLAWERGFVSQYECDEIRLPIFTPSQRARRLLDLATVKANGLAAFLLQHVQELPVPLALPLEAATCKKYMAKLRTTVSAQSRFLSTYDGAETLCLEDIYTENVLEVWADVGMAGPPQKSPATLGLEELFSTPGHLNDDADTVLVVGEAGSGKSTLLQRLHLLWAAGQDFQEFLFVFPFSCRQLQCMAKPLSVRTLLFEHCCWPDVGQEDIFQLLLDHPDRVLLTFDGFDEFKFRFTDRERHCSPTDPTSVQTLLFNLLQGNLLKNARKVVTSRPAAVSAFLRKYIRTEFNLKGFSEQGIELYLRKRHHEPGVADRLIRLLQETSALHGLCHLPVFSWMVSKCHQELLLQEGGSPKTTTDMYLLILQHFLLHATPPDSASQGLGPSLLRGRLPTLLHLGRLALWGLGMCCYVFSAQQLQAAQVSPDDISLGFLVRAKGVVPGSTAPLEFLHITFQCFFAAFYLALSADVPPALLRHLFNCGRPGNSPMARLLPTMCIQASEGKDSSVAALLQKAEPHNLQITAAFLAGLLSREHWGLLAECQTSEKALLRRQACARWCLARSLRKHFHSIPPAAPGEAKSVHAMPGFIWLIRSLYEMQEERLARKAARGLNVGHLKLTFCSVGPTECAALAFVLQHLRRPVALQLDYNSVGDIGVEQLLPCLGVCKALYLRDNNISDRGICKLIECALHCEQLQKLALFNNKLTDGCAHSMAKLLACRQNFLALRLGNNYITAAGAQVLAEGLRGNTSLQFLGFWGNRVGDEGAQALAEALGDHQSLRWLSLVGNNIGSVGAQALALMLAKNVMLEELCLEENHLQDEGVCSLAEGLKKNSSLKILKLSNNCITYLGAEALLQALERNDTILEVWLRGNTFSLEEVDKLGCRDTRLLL
Chain of DNA dC->dU-editing enzyme APOBEC-3G (Q9HC16 whole entry): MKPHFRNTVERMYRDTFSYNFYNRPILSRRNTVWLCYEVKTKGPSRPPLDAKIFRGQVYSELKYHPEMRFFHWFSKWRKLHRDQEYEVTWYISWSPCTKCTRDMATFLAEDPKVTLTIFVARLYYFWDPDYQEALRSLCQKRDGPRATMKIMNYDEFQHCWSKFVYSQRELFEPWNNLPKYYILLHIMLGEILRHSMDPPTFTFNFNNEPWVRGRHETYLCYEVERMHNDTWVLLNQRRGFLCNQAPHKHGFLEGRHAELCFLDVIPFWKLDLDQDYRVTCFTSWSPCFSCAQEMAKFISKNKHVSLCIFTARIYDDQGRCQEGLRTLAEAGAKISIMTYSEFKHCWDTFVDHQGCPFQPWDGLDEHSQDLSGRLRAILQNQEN

CC1CN(C(=O)c2ccc(NS(=O)(=O)c3ccc(C(C)(C)C)cc3)cc2)CC(C)O1 (stereo not given)
EC50 [1]: 5.96 µM (active) | EC50 [2]: 15.7 µM (active)

COc1ccc(-c2nn(-c3ccccc3C)cc2CNC(C)c2cn(C)nc2C)cc1F (stereo not given)
EC50 [1]: 1.68 µM (active)

Cc1nonc1C(=O)N/N=C/c1ccc([N+](=O)[O-])o1
IC50 (HEK293 [3]): > 20 µM (inactive) | IC50 (HEK293 [4]): > 20 µM (inactive) | IC50 (HEK293 [5]): > 20 µM (inactive) | EC50 [6]: 1.82 µM (active) | EC50 [7]: 30.2 µM (active) | EC50 [8]: 10.9 µM (active) | IC50 (cells): 8.02 µM (active) | EC50 (HEK293 [9]): 9.04 µM (active) | IC50 (HEK293 [10]): > 20 µM (inactive)

CCCCC(c1nnnn1CC1CCCO1)N1CCN(Cc2ccccc2)CC1 (stereo not given)
EC50 [11]: 2.37 µM (active) | EC50 [1]: 4.73 µM (active)

CC1=CC(C)(C)[N+](C)(C)c2ccccc21
IC50 [12]: 2.6 µM (active) | IC50 [13]: 2.98 µM (active)

COc1cc(CNCCc2ccccc2)cc(Br)c1OCC(=O)Nc1ccccc1C
CC50 [14]: 19.4 µM (active) | CC50 [15]: 23.1 µM (active) | IC50 (cells): 21.2 µM (active)

CCOc1cc(/C=N/NC(=O)c2cccs2)cc([N+](=O)[O-])c1O
IC50 (Aminopeptidase N): 103 µM (active)

Cc1ccc(-c2c(C#N)c(N)n3c(nc4ccccc43)c2C#N)cc1
IC50 (HEK293 [3]): 6.06 µM (active) | IC50 (HEK293 [4]): 11 µM (active) | IC50 (HEK293 [5]): > 20 µM (inactive) | EC50 [8]: > 20 µM (inactive) | EC50 (HEK293 [9]): 2.11 µM (active) | IC50 (HEK293 [10]): 6.22 µM (active) | AC50 (INS1): 3.86 µM (active)

CCn1nc(NC(=O)COC)c2cc3cc(C)ccc3nc21
IC50 [12]: 5.02 µM (active) | IC50 [13]: 6.5 µM (active)

COc1cc(OC)c(NC(=O)c2ccc3c(SCC(=O)O)c4c(nc3c2)CCCC4)cc1Cl
IC50 (Aminopeptidase N): 31.6 µM (active)
